Laboratory results from PMC2821678 (Chemico-biological interactions, 2009).
Where two headings read alike, the source gives them in different places.

How the values were obtained:
SK-MEL-28 melanoma cells [1] = test: MTT cell viability, SK-MEL-28; type: cell-based, human
Mushroom tyrosinase [2] = test: Tyrosinase mediated GSH depletion assay; type: biochemical; conditions: for % GSH depletion (2 h) Tyrosinase/O2: 2 h incubation
B16-F0 melanoma cells = test: MTT cell viability, B16-F0; type: cell-based, murine; conditions: for IC50: read-out: IC50 (48 h) B16-F0
[3] = system: tyrosinase shRNA transfected SK-MEL-28 cells; test: Drug sensitivity assay using tyrosinase shRNA transfected cells; type: cell-based, human
[4] = clinical trials terminated; cited from earlier work
Mushroom tyrosinase [5] = type: biochemical; conditions: pH 7.4; for Tyrosinase Kinetics AA (rate of AA oxidation): nM of AA per compound (μM) per tyrosinase (U/ml) per min; for Tyrosinase Kinetics NADH (rate of NADH oxidation): nM of NADH per compound (μM) per tyrosinase (U/ml) per min
[6] = system: melanocytic SK-MEL-28 melanoma cells; test: Intracellular GSH measurement, SK-MEL-28; type: cell-based, human
[7] = system: amelanotic C32 melanoma cells; test: Intracellular GSH measurement, C32; type: cell-based, human
[8] = system: melanocytic SK-MEL-28 melanoma cells; test: Reactive oxygen species; type: cell-based, human
[9] = system: amelanotic C32 melanoma cells; test: Reactive oxygen species; type: cell-based, human
SK-MEL-5 cells = test: MTT cell viability, SK-MEL-5; type: cell-based, human; conditions: 75 μM
MeWo cells = test: MTT cell viability, MeWo; type: cell-based, human; conditions: 75 μM
B16-F10 melanoma cells = test: MTT cell viability, B16-F10; type: cell-based, murine; conditions: 75 μM
[10] = system: amelanotic SK-MEL-24 cells; test: MTT cell viability, SK-MEL-24; type: cell-based; conditions: 75 μM
amelanotic C32 cells = test: MTT cell viability, C32; type: cell-based, human; conditions: 75 μM
MTT cell viability, PC-3 = type: cell-based; conditions: human, PC-3 prostate cells
MTT cell viability, BJ = type: cell-based; conditions: human, BJ skin fibroblast cells
[11] = MTT cell viability, Saos-2; type: cell-based; conditions: human, Saos-2 osteosarcoma cells
[12] = MTT cell viability, SW-620; type: cell-based; conditions: human, SW-620 colorectal adenocarcinoma cells
SK-MEL-28 melanoma cells [13] = test: Cell cycle analyses by flow cytometry; type: cell-based, human; conditions: 48 h
[14] = read-out: IC50 (48 h) SK-MEL-28, 48 h, MTT
[15] = Homo sapiens, SK-MEL-28, 48 h, read-out: IC50 (48 h) SK-MEL-28
[16] = 0.75 mM (750 μM), listed as C00002

2-hydroxyacetophenone
IC50 (SK-MEL-28 melanoma cells [1]; [14]): 4000 µM

COc1ccccc1O [2-hydroxyanisole]
% GSH depletion (2 h) Tyrosinase/O2 (Mushroom tyrosinase [2]): 25±2%
IC50 (B16-F0 melanoma cells; Mus musculus, B16F0, 48 h): 51 µM
IC50 (SK-MEL-28 melanoma cells [1]; [15]): 2200 µM

O=C(O)c1ccccc1O [2-hydroxybenzoic acid]
% GSH depletion (2 h) Tyrosinase/O2 (Mushroom tyrosinase [2]): 0%
IC50 (B16-F0 melanoma cells; Mus musculus, B16F0, 48 h): 5200 µM
IC50 (SK-MEL-28 melanoma cells [1]; [15]): 5000 µM

OCc1ccccc1O [2-hydroxybenzyl alcohol]
% GSH depletion (2 h) Tyrosinase/O2 (Mushroom tyrosinase [2]): 0%
IC50 (B16-F0 melanoma cells; Mus musculus, B16F0, 48 h): 1100 µM
IC50 (SK-MEL-28 melanoma cells [1]; [15]): 1500 µM

Cc1ccccc1O [2-hydroxytoluene]
IC50 (B16-F0 melanoma cells; Mus musculus, B16F0, 48 h): 3200 µM
IC50 (SK-MEL-28 melanoma cells [1]; [15]): 3200 µM

CC(=O)c1cccc(O)c1 [3-hydroxyacetophenone]
IC50 (B16-F0 melanoma cells; 48 h, MTT): 1400 µM
IC50 (SK-MEL-28 melanoma cells [1]; [14]): 2000 µM

COc1cccc(O)c1 [3-hydroxyanisole]
% GSH depletion (2 h) Tyrosinase/O2 (Mushroom tyrosinase [2]): 24±3%
IC50 (B16-F0 melanoma cells; Mus musculus, B16F0, 48 h): 43 µM
IC50 (SK-MEL-28 melanoma cells [1]; [15]): 3400 µM

O=C(O)c1cccc(O)c1 [3-hydroxybenzoic acid]
IC50 (B16-F0 melanoma cells; Mus musculus, B16F0, 48 h): 1800 µM
IC50 (SK-MEL-28 melanoma cells [1]; [15]): 2300 µM

OCc1cccc(O)c1 [3-hydroxybenzyl alcohol]
% GSH depletion (2 h) Tyrosinase/O2 (Mushroom tyrosinase [2]): 29±3%
IC50 (B16-F0 melanoma cells; Mus musculus, B16F0, 48 h): 4600 µM
IC50 (SK-MEL-28 melanoma cells [1]; [15]): 5000 µM

Cc1cccc(O)c1 [3-hydroxytoluene]
IC50 (B16-F0 melanoma cells; Mus musculus, B16F0, 48 h): 2100 µM
IC50 (SK-MEL-28 melanoma cells [1]; [15]): 2500 µM

CC(=O)c1ccc(O)cc1 [4-hydroxyacetophenone]
IC50 (B16-F0 melanoma cells; Mus musculus, B16F0, 48 h): 3000 µM
IC50 (SK-MEL-28 melanoma cells [1]; [15]): 8000 µM

COc1ccc(O)cc1 [4-hydroxyanisole]
% GSH depletion Tyrosinase/O2 (Mushroom tyrosinase [2]; measurement conducted at 30 min): 95±3 %
IC50 (B16-F0 melanoma cells; Mus musculus, B16F0, 48 h): 60 µM
IC50 (SK-MEL-28 melanoma cells [1]; [15]): 50 µM
cell toxicity when tyrosinase was silenced by shRNA plasmid ([3]; 4-HA 50 μM): significantly less cell toxicity
liver toxicity in clinical trials [4]: serious liver toxicity

O=C(O)c1ccc(O)cc1 [4-hydroxybenzoic acid]
% GSH depletion (2 h) Tyrosinase/O2 (Mushroom tyrosinase [2]): 30±5%
IC50 (B16-F0 melanoma cells; Mus musculus, B16F0, 48 h): 4200 µM
IC50 (SK-MEL-28 melanoma cells [1]; [15]): 11200 µM

OCc1ccc(O)cc1 [4-hydroxybenzyl alcohol]
IC50 (B16-F0 melanoma cells; Mus musculus, B16F0, 48 h): 2200 µM
IC50 (SK-MEL-28 melanoma cells [1]; [15]): 2000 µM

Cc1ccc(O)cc1 [4-hydroxytoluene]
IC50 (SK-MEL-28 melanoma cells [1]; [15]): 2000 µM

CC(=O)c1ccccc1 [Acetophenone, acetophenone, reference compound]
% GSH depletion (2 h) Tyrosinase/O2 (Mushroom tyrosinase [2]): 44±3%
IC50 (B16-F0 melanoma cells; Mus musculus, B16F0, 48 h): > 12000 µM
IC50 (SK-MEL-28 melanoma cells [1]; [15]): > 10000 µM

COc1ccccc1 [Anisole, anisole, reference compound]
% GSH depletion (2 h) Tyrosinase/O2 (Mushroom tyrosinase [2]): 21±3%
IC50 (B16-F0 melanoma cells; Mus musculus, B16F0, 48 h): > 5000 µM
IC50 (SK-MEL-28 melanoma cells [1]; [15]): > 12000 µM

O=C(O)c1ccccc1 [Benzoic acid, benzoic acid, reference compound]
% GSH depletion (2 h) Tyrosinase/O2 (Mushroom tyrosinase [2]): 12±2%
IC50 (B16-F0 melanoma cells; Mus musculus, B16F0, 48 h): 11000 µM
IC50 (SK-MEL-28 melanoma cells [1]; [15]): > 10000 µM

OCc1ccccc1 [Benzyl alcohol, benzyl alcohol, reference compound]
% GSH depletion (2 h) Tyrosinase/O2 (Mushroom tyrosinase [2]): 0%
IC50 (B16-F0 melanoma cells; Mus musculus, B16F0, 48 h): 8000 µM
IC50 (SK-MEL-28 melanoma cells [1]; [15]): > 10000 µM

CCOC(=O)c1ccc(OC)cc1 [E4MB, ethyl 4-methoxybenzoate]
% GSH depletion (2 h) Tyrosinase/O2 (Mushroom tyrosinase [2]; listed as C00002): 5±3%
Tyrosinase Kinetics AA (rate of AA oxidation) (Mushroom tyrosinase [5]): 8 nM
Tyrosinase Kinetics AA (rate of AA oxidation) (Mushroom tyrosinase [5]; listed as C00002): 8 nM ^**
Tyrosinase Kinetics NADH (rate of NADH oxidation) (Mushroom tyrosinase [5]): 50 nM
Tyrosinase Kinetics NADH (rate of NADH oxidation) (Mushroom tyrosinase [5]; listed as C00002): 50 nM ^**
IC50 (SK-MEL-28 melanoma cells [1]; Homo sapiens, SK-MEL-28, 48 h, read-out: IC50 (48 h) SK-MEL-28 cells): 750 µM
fold decrease in toxicity when compared to 4-HEB (SK-MEL-28 melanoma cells [1]; from IC50 (48 h), SK-MEL-28): 10 fold
Intracellular GSH (ICG) depletion (2 h) ([6]; 0.75 mM (750 μM)): 10%
Intracellular GSH (ICG) depletion (2 h) [6, 16]: 10%
Intracellular GSH depletion (2 h) ([6]; 1 mM): 13%
Intracellular GSH depletion (2 h) ([6]; 1.5 mM): 15%
Intracellular GSH (ICG) depletion (2 h) ([7]; 0.75 mM (750 μM)): 6%
Intracellular GSH (ICG) depletion (2 h) [7, 16]: 6%
Intracellular GSH depletion (2 h) ([7]; 1 mM): 7%
Intracellular GSH depletion (2 h) ([7]; 1.5 mM): 10%
Fold ROS formation (40 min) at IC50 ([8]; 750 μM, SK-MEL-28): 9 Fold
ROS formation ([8]; 750 μM-5 mM, SK-MEL-28, in comparison to 4-HEB): significantly lower
Fold ROS formation (40 min) at IC50 ([9]; 750 μM, C32): 4 Fold
ROS formation ([9]; 750 μM-5 mM, C32): negligible

CCOC(=O)c1ccccc1O [Ethyl 2-hydroxybenzoate, ethyl 2-hydroxybenzoate]
% GSH depletion (2 h) Tyrosinase/O2 (Mushroom tyrosinase [2]): 22±2%
IC50 (B16-F0 melanoma cells; Mus musculus, B16F0, 48 h): 2600 µM
IC50 (SK-MEL-28 melanoma cells [1]; [15]): 2000 µM

CCOC(=O)c1cccc(O)c1 [Ethyl 3-hydroxybenzoate, ethyl 3-hydroxybenzoate]
IC50 (B16-F0 melanoma cells; Mus musculus, B16F0, 48 h): 1900 µM
IC50 (SK-MEL-28 melanoma cells [1]; [15]): 2100 µM

CCOC(=O)c1ccc(O)cc1 [Ethyl 4-hydroxybenzoate, ethyl 4-hydroxybenzoate]
% GSH depletion (2 h) Tyrosinase/O2 (Mushroom tyrosinase [2]): 24±4%
% GSH depletion (2 h) Tyrosinase/O2 (Mushroom tyrosinase [2]; listed as 4-HEB): 24%
% GSH depletion (2 h) Tyrosinase/O2 (Mushroom tyrosinase [2]; listed as C00001): 24±4%
Tyrosinase Kinetics AA (rate of AA oxidation) (Mushroom tyrosinase [5]; listed as C00001): 143 nM ^*
Tyrosinase Kinetics NADH (rate of NADH oxidation) (Mushroom tyrosinase [5]; listed as C00001): 389 nM ^*
anti-proliferative effect (B16-F0 melanoma cells; 75 μM, B16-F0): 62±11%
IC50 (B16-F0 melanoma cells; Mus musculus, B16F0, 48 h): 190 µM
anti-proliferative effect (SK-MEL-28 melanoma cells [1]; 75 μM, SK-MEL-28): 52±4%
IC50 (SK-MEL-28 melanoma cells [1]; [15]): 75 µM
anti-proliferative effect (SK-MEL-5 cells): 57±5%
anti-proliferative effect (MeWo cells): 55±8%
anti-proliferative effect (B16-F10 melanoma cells): 60±8%
anti-proliferative effect [10]: 24±3%
anti-proliferative effect (amelanotic C32 cells): 28±4%
viability at 75 µM (MTT cell viability, PC-3): 85 ± 3%
viability at 75 µM (MTT cell viability, BJ): 89 ± 7%
viability at 75 µM [11]: 86 ± 1%
viability at 75 µM [12]: 89 ± 4%
toxicity prevented by transfection with tyrosinase shRNA clone 3 ([3]; 75 μM, 48 h, shRNA3 curtailed tyrosinase expression by 50%): 24±7%
Intracellular GSH (ICG) depletion (2 h) ([6]; 75 μM, listed as C00001): 37%
Intracellular GSH (ICG) depletion (2 h) ([7]; 75 μM, listed as 4-HEB): 8%
Intracellular GSH (ICG) depletion (2 h) ([7]; 75 μM, listed as C00001): 8%
Intracellular GSH depletion (2 h) ([7]; 150 μM): 13%
Fold ROS formation (40 min) at IC50 ([8]; 75 μM, SK-MEL-28): 24 Fold
ROS formation ([8]; 75-1500 μM, various time points, SK-MEL-28): dose and time dependent increase
Fold ROS formation (40 min) at IC50 ([9]; 75 μM, C32): 6 Fold
ROS formation ([9]; 75-1500 μM, C32, compared with SK-MEL-28): significantly less
Apoptosis (Sub G0/G1) (SK-MEL-28 melanoma cells [13]; 75 μM): 2.9±0.3 %
G1 (SK-MEL-28 melanoma cells [13]; 75 μM): 74.7±0.8%
G2/M (SK-MEL-28 melanoma cells [13]; 75 μM): 9.9±0.1%
S (SK-MEL-28 melanoma cells [13]; 75 μM): 12.4±0.7%
Apoptosis (Sub G0/G1) (SK-MEL-28 melanoma cells [13]; 150 μM): 3.1±0.2 %
G1 (SK-MEL-28 melanoma cells [13]; 150 μM): 72.1±0.7%
G2/M (SK-MEL-28 melanoma cells [13]; 150 μM): 10.6±0.9%
S (SK-MEL-28 melanoma cells [13]; 150 μM): 13.2±1.2%
Apoptosis (Sub G0/G1) (SK-MEL-28 melanoma cells [13]; 250 μM): 5.0±0.9 %
G1 (SK-MEL-28 melanoma cells [13]; 250 μM): 63.4±1.8 %
G2/M (SK-MEL-28 melanoma cells [13]; 250 μM): 10.7±0.7%
S (SK-MEL-28 melanoma cells [13]; 250 μM): 20.1±2.6 %
Apoptosis (Sub G0/G1) (SK-MEL-28 melanoma cells [13]; 500 μM): 6.2±0.8 %
G1 (SK-MEL-28 melanoma cells [13]; 500 μM): 59.8±1.6 %
G2/M (SK-MEL-28 melanoma cells [13]; 500 μM): 10.9±0.4%
S (SK-MEL-28 melanoma cells [13]; 500 μM): 22.1±0.9 %

CCOC(=O)c1ccccc1 [Ethyl benzoate, ethyl benzoate, reference compound]
% GSH depletion (2 h) Tyrosinase/O2 (Mushroom tyrosinase [2]): 26±3%
IC50 (B16-F0 melanoma cells; Mus musculus, B16F0, 48 h): > 10000 µM
IC50 (SK-MEL-28 melanoma cells [1]; [15]): 7000 µM

Cc1ccccc1 [Toluene, toluene, reference compound]
IC50 (B16-F0 melanoma cells; Mus musculus, B16F0, 48 h): > 10000 µM
IC50 (SK-MEL-28 melanoma cells [1]; [15]): 10000 µM
